Data from the CheMixHub drug solubility set.

Test: xn = mol fraction of the nth substance listed, in the solute-free solvent

O=C1CCc2ccc(OCCCCN3CCN(c4cccc(Cl)c4Cl)CC3)cc2N1 + CCC(C)=O + CC(C)=O
solubility (g/100 g solution)
Conditions	278.15 K	283.15 K	288.15 K	293.15 K	298.15 K	303.15 K	308.15 K	313.15 K	318.15 K
x2 = 0.1	0.779	0.97	1.13	1.44	1.75	2.16	2.61	3.34	4.18
x2 = 0.2	0.882	1.07	1.25	1.61	1.94	2.32	2.83	3.58	4.41
x2 = 0.3	0.948	1.16	1.34	1.71	2.09	2.46	3.02	3.74	4.62
x2 = 0.4	1.01	1.22	1.43	1.78	2.19	2.59	3.21	3.88	4.8
x2 = 0.5	1.05	1.28	1.5	1.86	2.28	2.71	3.34	4.01	4.96
x2 = 0.6	1.09	1.34	1.57	1.93	2.36	2.82	3.46	4.13	5.1
x2 = 0.7	1.12	1.38	1.63	1.99	2.43	2.91	3.54	4.23	5.21
x2 = 0.8	1.15	1.43	1.68	2.06	2.49	2.99	3.62	4.3	5.27
x2 = 0.9	1.17	1.47	1.72	2.12	2.54	3.06	3.68	4.35	5.31

O=C1CCc2ccc(OCCCCN3CCN(c4cccc(Cl)c4Cl)CC3)cc2N1 + CCC(C)=O + CCCO
solubility (g/100 g solution)
Conditions	278.15 K	283.15 K	288.15 K	293.15 K	298.15 K	303.15 K	308.15 K	313.15 K	318.15 K
x2 = 0.1	0.703	0.851	1.04	1.22	1.46	1.7	2.04	2.61	3.38
x2 = 0.2	1.03	1.2	1.44	1.69	1.98	2.38	2.87	3.56	4.45
x2 = 0.3	1.32	1.52	1.88	2.29	2.68	3.15	3.67	4.46	5.5
x2 = 0.4	1.6	1.86	2.24	2.74	3.21	3.77	4.34	5.18	6.36
x2 = 0.5	1.86	2.05	2.48	3.03	3.59	4.13	4.81	5.82	7.2
x2 = 0.6	2.04	2.25	2.67	3.18	3.75	4.3	5.16	6.36	7.89
x2 = 0.7	1.98	2.21	2.62	3.12	3.68	4.22	5.04	6.23	7.71
x2 = 0.8	1.84	2.09	2.47	2.96	3.48	4.03	4.72	5.83	7.15
x2 = 0.9	1.68	1.94	2.27	2.69	3.12	3.61	4.21	5.13	6.36

CC(=O)NC(CCC(N)=O)C(=O)O (stereo unspecified) + O + CO
solubility (g/100 g solution)
Conditions	293.15 K	298.15 K	303.15 K	308.15 K	313.15 K	318.15 K
x2 = 0.1998	1.22	1.48	1.76	2.06	2.62	3.27
x2 = 0.4906	2.54	2.73	3.45	4.16	5.01	5.92
x2 = 0.6921	3.1	3.54	4.77	5.99	7.07	8.56
x2 = 0.7712	3.1	3.37	4.17	4.97	6.05	7.41
x2 = 0.8999	3.14	3.34	4.37	5.12	5.77	7.05

CC(=O)OC(c1ccccc1)C(Cl)(Cl)Cl (stereo unspecified) + CCO + O
solubility (g/100 g solution)
Conditions	288.15 K	293.15 K	298.15 K	303.15 K	308.15 K	313.15 K	318.15 K	323.15 K	328.15 K
x2 = 0.4	0.237	0.492	0.787	1.3	1.94	2.85	3.79	4.63	5.65
x2 = 0.5	0.569	0.744	1.1	1.98	2.72	3.4	4.43	6.17	8.15
x2 = 0.6	1.11	1.43	1.77	3.24	4.3	5.43	7.34	9.98	13.9
x2 = 0.7	1.91	2.46	3	4.64	6.14	7.47	9.86	13.2	18
x2 = 0.8	2.52	3.05	4.06	6.07	7.63	9.55	12.1	16.4	21.2
x2 = 0.9	3.42	4.13	5.46	7.3	9.27	11.8	15.2	20	26.4

CC(=O)OC(c1ccccc1)C(Cl)(Cl)Cl (stereo unspecified) + CC(C)O + O
solubility (g/100 g solution)
Conditions	288.15 K	293.15 K	298.15 K	303.15 K	308.15 K	313.15 K	318.15 K	323.15 K	328.15 K
x2 = 0.3	0.121	0.305	0.695	1.28	1.93	2.84	3.53	4.2	4.91
x2 = 0.4	0.68	1.07	1.66	2.53	3.38	4.59	5.99	7.89	10.2
x2 = 0.5	1.44	1.92	2.68	3.57	4.9	6.25	8.62	11.3	15.3
x2 = 0.6	2.16	2.57	3.54	4.68	6.23	7.88	10.9	14.7	19.1
x2 = 0.7	2.5	3.03	4.15	5.52	7.14	9.44	12.2	16.8	21.4
x2 = 0.8	2.69	3.35	4.57	6.3	7.95	10.4	13.8	18.5	23.5
x2 = 0.9	2.86	3.67	5.1	6.71	8.39	10.9	14.4	19.4	25.3

CCCCOc1ccc(C(=O)CCN2CCCCC2)cc1.Cl + CO + C1CCOC1
solubility (g/100 g solution)
Conditions	278.15 K	283.15 K	288.15 K	293.15 K	298.15 K	303.15 K	308.15 K	313.15 K	318.15 K	323.15 K
x2 = 0.1	3.9	4.4	4.97	5.64	6.4	7.23	8.14	9.22	10.4	11.6
x2 = 0.2	7.86	8.84	9.92	11.2	12.4	13.9	15.5	17.2	19.1	21.1
x2 = 0.3	12	13.4	14.9	16.6	18.4	20.5	22.6	24.9	27.4	30
x2 = 0.4	16.3	18.1	20.1	22.3	24.6	27	29.6	32.5	35.4	38.5
x2 = 0.5	20.8	23.1	25.4	28	30.6	33.5	36.5	39.6	42.8	46.2
x2 = 0.6	25.5	28.2	30.8	33.7	36.7	39.8	43	46.4	49.9	53.3
x2 = 0.7	30.6	33.5	36.5	39.6	42.9	46.2	49.6	53	56.5	59.9
x2 = 0.8	35.7	38.9	42	45.4	48.7	52.1	55.5	59	62.5	65.8
x2 = 0.9	41.3	44.6	48	51.3	54.7	58.1	61.5	64.9	68	71.3

Nc1cncc(Cl)n1 + CCCO + O
solubility (g/100 g solution)
Conditions	278.15 K	283.15 K	288.15 K	293.15 K	298.15 K	303.15 K	308.15 K	313.15 K	318.15 K	323.15 K
x2 = 0.03225	–	–	–	–	–	–	–	–	–	0.0893
x2 = 0.06974	–	–	–	–	–	–	–	–	–	0.208
x2 = 0.1139	0.364	0.43	0.499	0.588	0.686	0.81	0.936	1.08	1.23	1.41
x2 = 0.1666	0.527	0.621	0.722	0.852	0.998	1.18	1.36	1.57	1.79	2.05
x2 = 0.2307	0.638	0.75	0.883	1.04	1.25	1.48	1.73	2.01	2.31	2.65
x2 = 0.3103	0.747	0.891	1.06	1.26	1.51	1.79	2.11	2.46	2.83	3.24
x2 = 0.4117	0.837	1.02	1.22	1.46	1.76	2.11	2.48	2.89	3.33	3.85
x2 = 0.5454	0.928	1.11	1.31	1.61	1.94	2.37	2.82	3.33	3.85	4.44
x2 = 0.7297	0.918	1.12	1.37	1.7	2.09	2.52	3.02	3.56	4.15	4.87
